Experimental data reported in US20260007601A1, “IONIZABLE CATIONIC LIPID COMPOUND AND COMPOSITION FOR DELIVERING NUCLEIC ACID AND USE THEREOF” (BEIJING YOUCAREKECHUANG PHARMACEUTICAL TECHNOLOGY CO., LTD., priority 2023, published 2026).
“And” between values parts separate entries of the source, which are not always exact repeats. Equal entries are not always repeated.

Assays:
[1] = tested on: 293T cells; test: Cell transfection experiment of LNP formulation of eGFP-mRNA (optimization of preparation conditions); type: cell-based; details: 0.5% to 15% tested
Experimental: The cationic lipid compound YK-202 synthesized in Example 1, DSPC (AVT (Shanghai) Pharmaceutical Technology Co., Ltd.), cholesterol (AVT (Shanghai) Pharmaceutical Technology Co., Ltd.) and DMG-PEG2000 were dissolved in ethanol at a molar ratio of 49:10:39.5:1.5 to prepare an ethanol lipid solution. The ethanol lipid solution was quickly added to a citrate buffer (pH=4 to 5) by ethanol injection method and vortexed for 30 seconds for use. eGFP-mRNA was diluted in a citrate buffer (pH=4 to 5) to obtain an mRNA aqueous solution. […]
Plating: The cells in the culture dish were digested, counted, plated in a 96-well plate at 10,000 cells per well, or in a 12-well plate at 150,000 cells per well, and cultured overnight until the cells adhered to the wall.
Cell transfection experiment: The LNP formulation containing 1.5 μg of eGFP-mRNA prepared in Example 2 (the cationic lipid in the carrier was YK-202) and Lipofectamin 3000 formulation of eGFP-mRNA were added to the cell culture medium in a 12-well plate, and the cells were cultured for 24 hours. The transfection efficiency of different samples was investigated by fluorescence microscopy based on the fluorescence intensity.

[2] = tested on: 293T cells; test: Fluorescence detection of Fluc-mRNA (cell transfection efficiency of LNP formulations); type: cell-based; details: for RLU / cell transfection efficiency, times that of ALC-0315 / RLU / cell transfection efficiency, times that of HHMA / RLU / cell transfection efficiency, times that of Lipofectamine 3000 / RLU / cell transfection efficiency, times that of YK-009 / RLU / cell transfection efficiency, times that of compound 21 / RLU / cell transfection efficiency, times that of compound 23 / cell transfection efficiency, times that of YK-223 / cell transfection efficiency, times that of YK-224 / cell transfection efficiency, times that of YK-226 / fluorescence absorption value / cell transfection efficiency, times that of YK-203 / fluorescence absorption value / cell transfection efficiency, times that of YK-204 / fluorescence absorption value / cell transfection efficiency, times that of YK-205 / fluorescence absorption value / cell transfection efficiency, times that of YK-208 / fluorescence absorption value / cell transfection efficiency, times that of YK-210 / fluorescence absorption value / cell transfection efficiency, times that of YK-211 / fluorescence absorption value / cell transfection efficiency, times that of YK-212 / fluorescence absorption value / cell transfection efficiency, times that of YK-213 / fluorescence absorption value / cell transfection efficiency, times that of YK-214 / fluorescence absorption value / cell transfection efficiency, times that of YK-215 / fluorescence absorption value / cell transfection efficiency, times that of YK-216 / fluorescence absorption value / cell transfection efficiency, times that of YK-217 / fluorescence absorption value / cell transfection efficiency, times that of YK-218 / fluorescence absorption value / cell transfection efficiency, times that of YK-219 / fluorescence absorption value / cell transfection efficiency, times that of YK-220 / fluorescence absorption value, times that of YK-222: Fluc-mRNA LNP; for Relative light unit (RLU): LNP containing 0.3 μg Fluc-mRNA, 24 hours; for Multiples of values that equivalent to YK-201: RLU of YK-201 / RLU of the named lipid; for Multiples of values that equivalent to YK-202: RLU of YK-202 / RLU of the named lipid
Summary of the method: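 293T cells at 10,000 per well, adhered overnight, then given LNPs carrying 0.3 μg Fluc-mRNA (cationic:neutral:structured:polymer-conjugated lipid 49:10:39.5:1.5 molar). After 24 h, luciferase signal read with luciferase kit reagents on an IVIS imaging system as transfection efficiency.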

SMILES	RLU / cell transfection efficiency, times that of ALC-0315 [2] [times]	RLU / cell transfection efficiency, times that of HHMA [2] [times]	RLU / cell transfection efficiency, times that of Lipofectamine 3000 [2] [times]	RLU / cell transfection efficiency, times that of YK-009 [2] [times]	RLU / cell transfection efficiency, times that of compound 21 [2]	RLU / cell transfection efficiency, times that of compound 23 [2]	cell transfection efficiency, times that of YK-223 [2] [times]	cell transfection efficiency, times that of YK-224 [2] [times]	cell transfection efficiency, times that of YK-226 [2] [times]	fluorescence absorption value / cell transfection efficiency, times that of YK-203 [2] [times]	fluorescence absorption value / cell transfection efficiency, times that of YK-204 [2]	fluorescence absorption value / cell transfection efficiency, times that of YK-205 [2] [times]	fluorescence absorption value / cell transfection efficiency, times that of YK-208 [2] [times]	fluorescence absorption value / cell transfection efficiency, times that of YK-210 [2] [times]	fluorescence absorption value / cell transfection efficiency, times that of YK-211 [2] [times]	fluorescence absorption value / cell transfection efficiency, times that of YK-212 [2] [times]	fluorescence absorption value / cell transfection efficiency, times that of YK-213 [2] [times]	fluorescence absorption value / cell transfection efficiency, times that of YK-214 [2] [times]	fluorescence absorption value / cell transfection efficiency, times that of YK-215 [2] [times]	fluorescence absorption value / cell transfection efficiency, times that of YK-216 [2] [times]	further results
CCCCCCCCCCCOC(=O)CCCCCN(CCCCCCCC(=O)OCC(CCCCCCCC)CCCCCCCC)CCN(C)CCO [YK-202]	13.95	14.27	24.94	5.84	21.08 times and 21 times	22.49 times and 22 times	399.37	340.35	519.55	7.74	82 times and 82.30 times	29.11	7.76	6.47	21.87	7.66	21.95	6.54	30.53	13.14	molar ratio of polymer-conjugated lipid DMG-PEG2000 to carrier with the highest transfection efficiency [1]: 1.5%; fluorescence absorption value / cell transfection efficiency, times that of YK-217 [2]: 416.94 times; fluorescence absorption value / cell transfection efficiency, times that of YK-218 [2]: 49.35 times; fluorescence absorption value / cell transfection efficiency, times that of YK-219 [2]: 19.89 times; fluorescence absorption value / cell transfection efficiency, times that of YK-220 [2]: 138.44 times; fluorescence absorption value, times that of YK-222 [2]: 49.41 times; Relative light unit (RLU) [2]: 29957419 RLU; Multiples of values that equivalent to YK-201 [2]: 0.95; Multiples of values that equivalent to YK-202 [2]: 1.00
CCCCCCCCC(CCCCCCCC)COC(=O)CCCCCN(CCCCCC(=O)OCC(CCCCCCCC)CCCCCCCC)CCN(C)CCO [YK-209, bis(2-octyldecyl)-6,6′-((2-(2-hydroxyethyl(methyl)amino)ethyl)azadialkyl)dihexanoate]	12.51	12.79	22.36	5.24	18.90 times	20.17 times	280.74	239.25	365.22	5.44	57 times and 57.85 times	20.46	5.46	4.55	15.37	5.39	15.43	4.60	21.46	9.24	fluorescence absorption value / cell transfection efficiency, times that of YK-217 [2]: 293.09 times; fluorescence absorption value / cell transfection efficiency, times that of YK-218 [2]: 34.69 times; fluorescence absorption value / cell transfection efficiency, times that of YK-219 [2]: 13.98 times; fluorescence absorption value / cell transfection efficiency, times that of YK-220 [2]: 97.32 times; fluorescence absorption value, times that of YK-222 [2]: 34.73 times; Multiples of values that equivalent to YK-209 ([2]; RLU of YK-209 / RLU of the named lipid): 1.00
CCCCCCCCCCCOC(=O)CCCCCN(CCCCCCCC(=O)OC(CCCCCCCC)CCCCCCCC)CCN(C)CCO [YK-201, heptadecan-9-yl-8-(2-((2-hydroxyethyl)(methylamino))ethyl)(6-oxo-6-((undecanyloxy)hexyl)amino)octanoate]	13.27	13.56	23.71	5.56	20.04 times	21.38 times	379.71	323.59	493.98	7.36	78 times and 78.25 times	27.68	7.38	6.15	20.79	7.28	20.87	6.22	29.03	12.49	fluorescence absorption value / cell transfection efficiency, times that of YK-217 [2]: 396.42 times; fluorescence absorption value / cell transfection efficiency, times that of YK-218 [2]: 46.92 times; fluorescence absorption value / cell transfection efficiency, times that of YK-219 [2]: 18.91 times; fluorescence absorption value / cell transfection efficiency, times that of YK-220 [2]: 131.62 times; fluorescence absorption value, times that of YK-222 [2]: 46.97 times; Relative light unit (RLU) [2]: 28482617 RLU; Multiples of values that equivalent to YK-201 [2]: 1.00; Multiples of values that equivalent to YK-202 [2]: 1.05; Ratio relative to SM-102 ([2]; RLU of the named lipid / RLU of SM-102, times that of SM-102): 17.10
